The values that follow come from PubChem BioAssay AID686993 (Broad Institute, 2013).

Structures are written as SMILES. “And” between values parts separate entries of the source, which are not always exact repeats. Equal entries are not always repeated. Records with an inconclusive call do not appear. The source made the active and inactive calls.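 Rule for the calls: active = compound whose fitted half-maximal inhibitory dose is at most twice its top valid dose in every replicate test; inconclusive = replicate test calls disagree with one another; inactive = all replicate tests inactive, including opposite-direction effects.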

Usually AC50 stands for the midpoint of the concentration-response curve, whichever way the signal moves.

One assay addresses UDP-N-acetylbacillosamine N-acetyltransferase PglD (Campylobacter jejuni). Put plainly: inhibition of C. jejuni PglD N-acetyltransferase – biochemical, DTNB absorbance, dry powder samples, set 4, dose response (AID 686993). The note with it: purified PglD, DTNB absorbance 412 nm, CoA release.
As to `Cc1c(C(=O)O)sc2nc(/C=C/c3ccc4ccccc4c3)[nH]c(=O)c12`, the half-maximal activity concentration (AC50) is 30.5 µM.

Consider `Cc1c(C(=O)O)sc2nc(/C=C/c3cccc(C(F)(F)F)c3)[nH]c(=O)c12`, for which the AC50 was 29.1 µM.

On to `Cc1c(C(=O)O)sc2nc(/C=C/C=C/c3ccccc3)[nH]c(=O)c12`, for which the concentration at half-maximal activity (AC50) is 18.2 µM.

As for `Cc1c(C(=O)O)sc2nc(/C=C/c3ccccc3)[nH]c(=O)c12`, the AC50 is 8.04 µM.

In the case of `Cc1c(C(=O)O)sc2nc(/C=C/c3ccc4cc[nH]c4c3)[nH]c(=O)c12`, the concentration at half-maximal activity (AC50) was 7.87 µM.

`Cc1c(C(=O)O)sc2nc(/C=C/c3cccc(C(N)=O)c3)[nH]c(=O)c12`: the half-maximal activity concentration (AC50) was 17.6 µM.

`Cc1c(C(=O)O)sc2nc(/C=C/c3ccc(N)nc3)[nH]c(=O)c12`: the AC50 is 14.6 µM.

`Cc1c(C(=O)O)sc2nc(/C=C/c3cccc(O)c3)[nH]c(=O)c12`: the concentration at half-maximal activity (AC50) was 11.7 µM and 1.93 µM.

Take `Cc1c(C(=O)O)sc2nc(/C=C/c3cc4ccccc4cn3)[nH]c(=O)c12`: the concentration at half-maximal activity (AC50) was 4.54 µM.

With `Cc1c(C(=O)O)sc2nc(/C=C/c3ccc4[nH]ccc4c3)[nH]c(=O)c12`, the concentration at half-maximal activity (AC50) is 3.97 µM.

Take `Cc1c(C(=O)O)sc2nc(/C=C/c3cccc(F)c3)[nH]c(=O)c12`: the AC50 was 7.23 µM.

For the compound `Cc1c(C(=O)O)sc2nc(CCc3cccc(O)c3)[nH]c(=O)c12`, the AC50 is 8.28 µM.

Regarding `Cc1c(C(=O)O)sc2nc(/C=C/c3ccccn3)[nH]c(=O)c12`, the AC50 was 2.58 µM.

Staying with this assay, now noted: purified PglD, DTNB absorbance 412 nm, CoA release; at 10 µM (top of the series).
For the compound `Cc1c(C(=O)O)sc2nc(/C=C/c3ccncc3)[nH]c(=O)c12`, the “activity change, negative = inhibition” value was “inactive”.

`Cc1c(C(=O)O)sc2nc(/C=C/c3cnc4ccccc4c3)[nH]c(=O)c12`: the “activity change, negative = inhibition” value is “inactive”.

The same assay, now with this note: purified PglD, DTNB absorbance 412 nm, CoA release; at 38 µM (top of the series).
Consider `Cc1c(C(=O)O)sc2nc(/C=C/C3CC3)[nH]c(=O)c12`, for which the “activity change, negative = inhibition” value is “inactive”.

For the compound `Cc1c(C(=O)O)sc2nc(/C=C/c3ccnc4ccccc34)[nH]c(=O)c12`, the “activity change, negative = inhibition” value is “inactive”.

For `Cc1c(C(=O)O)sc2nc(/C=C/c3cccc(O)c3)[nH]c(=O)c12`, the “activity change, negative = inhibition” value was “inactive”.
